According to patent US20140341812A1, “BETA-AMYLOID PET IMAGING AGENTS” (The United States of America, as represented by the …, priority 2006, published 2014):

Tested on: not given
Assay: not given
Details: after intravenous injection into rodent or monkey; reported in Cai et al., J. Med. Chem. 2004; cited from earlier work

SMILES | SUV (standardized uptake value) in brain
CN(CCF)c1ccc(-c2cn3cc(I)ccc3n2)cc1 [[^18F]FEM-IMPY, N-(2-fluoroethyl)-4-(6-iodo-H-imidazo[1,2-A]pyridin-2-yl)-N-methylbenzeneamine] | about 160 % I.D.kg/g
CN(CCC[18F])c1ccc(-c2cn3cc(I)ccc3n2)cc1 [[^18F]FPM-IMPY] | about 160 % I.D.kg/g

Molecular target: T1, beta-amyloid plaques in AD brain tissue (Homo sapiens, UniProt P05067)
T1 construct: gauged from the concentration of Aβ1-40 and Aβ1-42 monomers; from tissue; host or cells: postmortem human AD brain grey matter; plaques isolated by SDS/sucrose centrifugation and collagenase/DNase digestion
T1 sequence (P05067 672-713 limits assumed): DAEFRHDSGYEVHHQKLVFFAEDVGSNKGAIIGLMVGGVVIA
T1 sequence (P05067 672-711 limits assumed): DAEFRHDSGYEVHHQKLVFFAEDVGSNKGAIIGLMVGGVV
Assay: In vitro binding assay: competitive displacement of [3H]6-OH-BTA-1 from isolated human AD amyloid plaques
Details: [3H]6-OH-BTA-1 as reference radioligand; isolated human AD amyloid plaques; Table 4
Method: Isolation of human AD amyloid. Postmortem brain […] were obtained from a confirmed AD patient. Pre- and postmortem consent was obtained from next of kin, and brains were removed at autopsy, sectioned and frozen at −70° C. Bags of brain tissue were removed from the freezer to a −20° C. freezer one day before, and then placed on ice 3 h before the experiment. While working on ice, the brain tissue was cut into small sections, and meningies from outer layer of cortex and from fissures between the lobes of the gray matter was removed. After removing the white matter, the grey matter were chopped into small pieces and placed into plastic bags. The tissue was stored in −70° C. freezer for further use.
In a typical isolation, 60 g of brain tissue were used. Initially, an equal volume of 1% SDS was added to homogenize. More 1% SDS was added later until 200 mL. The mixture was vortexed, distributed evenly among 10 Beckman ultracentrifuge tubes, and centrifuged by a Coulter type 55.2 Ti ultracentrifuge rotor using RPM: 40,000; G force; 180,000; temp: 4° C.; time: 30 min. The collected bottom pellets were further homogenized and centrifuged twice more as described above using 50 mL and 20 mL of 1% SDS each, and finally in 20 mL 1.2 M sucrose. The supernatant along the top pellet was discarded. The pellets at the bottom were homogenized and centrifuged in 20 mL 1.9 M sucrose. The top pellets were collected using a cell scrapper, and the bottom pellets were discarded. The collected top pellets were homogenized and centrifuged using 20 mL deionized water. The bottom pellets were further homogenized and centrifuged using 1.3 M sucrose solution into one centrifuge tube. The bottom pellets were homogenized and centrifuged using 20 mL deionized water. The collected pellets were homogenized in 30 mL of 50 mM Tris-HCl, pH 8.0, 2 mM CaCl2. Collagenase CLS3 (120 mg) and DNAase I (10-15 mg) were added. The mixture was vortexed and incubated for 24-56 hrs at 37° C. in a water bath with shaking. After incubation, the suspension was filtered through 41 μm Milllpore filter paper. The collected filtrate was centrifuged and the bottom pellets were homogenized and centrifuged one more time using the Tris-HCl solution. The supernatant was discarded, and the pellets were homogenized and centrifuged using 10 mL 1.9 M sucrose. The top pellet and the 1.9M sucrose layer were transferred to a new tube (this is to remove heavy particles such as metals and salts). Deionized water (40 mL) was added. After homogenization and centrifugation, the collected pellets were put into 500 μL of deionized water to form a homogeneous suspension. It was stored in a refrigerator or freezer for further use.
The amyloid suspension prepared above was diluted by a factor of 40,000 to 50,000 in PBS, and 800 μL suspension was used in each tube. […] Cold 6-OH-BTA-1 or other displacer was dissolved in ethanol to result in a stock solution of 1×10^−3 M, which was further diluted using PBS or ethanol to result in solutions with concentrations ranging from 1×10^−5 to 10^−10 M, and 100 μL was used in each tube. After assembly, the tubes were vortexed, and incubated for 3 hrs at room temperature. After separation using a cell harvester, the filter paper (GF/B filter paper pretreated with 0.5% polyimine solution) was washed with 10% ethanol in PBS (3×3 mL). The filters were placed into 20 mL glass vials and 10 mL scintillation fluid each was added. After overnight incubation, the samples were counted. The data were analyzed using GraphPad Prism 4 or KaleidaGraph 3.6.
Isolated plaques were used in developing an in vitro binding assay. Tritiated-6-OH-BTA-1 was selected as the reference radioligand based on its use in human PET imaging and high affinity.^28 Displacement curves were created using non-radioactive 6-OH-BTA-1 and other novel ligands.

Ki | SMILES
31 ± 5 nM | CN(CCF)c1ccc(-c2cn3cc(I)ccc3n2)cc1 [Ligand L2, N-(2-fluoroethyl)-4-(6-iodo-H-imidazo[1,2-A]pyridin-2-yl)-N-methylbenzeneamine, reference compound]
41 ± 5 nM | CN(CCCF)c1ccc(-c2cn3cc(I)ccc3n2)cc1 [Ligand L3, reference compound]
24.2 ± 5.6 nM | CN(C)c1ccc(-c2cn3cc(Cl)ccc3n2)cc1 [Ligand L5]
13 ± 1.6 nM | CN(C)c1ccc(-c2cn3cc(F)ccc3n2)cc1 [Ligand L6, 4-(6-fluoro-H-imidazo[1,2-a]pyridin-2-yl)-N,N-dimethylbenzenamine]
7.6 ± 0.7 nM | CN(C)c1ccc(-c2cn3cc([N+](=O)[O-])ccc3n2)cc1 [Ligand L7, N,N-dimethyl-4-(6-nitro-H-imidazo[1,2-a]pyridin-2-yl)benzenamine]
8.2 ± 1 nM | CN(C)c1ccc(-c2cn3cc(C#N)ccc3n2)cc1 [Ligand L8, 2-(4-(dimethylamino)phenyl)-H-imidazo[1,2-a]pyridine-6-carbonitrile]
38.5 ± 5 nM | COc1ccc2nc(-c3ccc(N(C)C)cc3)cn2c1 [Ligand L9, 4-(6-methoxy-H-imidazo[1,2-a]pyridin-2-yl)-N,N-dlmethylbenzenamine]
177 ± 31 nM | CN(C)c1ccc(-c2cn3cc(O)ccc3n2)cc1 [Ligand L12, 2-(4-(dimethylamino)phenyl)-H-imidazo[1,2-a]pyridin-6-ol]
183 ± 61 nM | CN(C)c1ccc(-c2cc3c(I)cc(Br)cn3c2)cc1 [Ligand L13, 4-(6-bromo-8-iodoindolizin-2-yl)-N,N-dimethylbenzenamine]
> 180 nM | CN(C)c1ccc(-c2cc3c(C#N)cc(Br)cn3c2)cc1 [Ligand L14, 6-bromo-2-(4-(dimethylamino)phenyl)indolizine-8-carbonitrile]
7.4 ± 0.6 nM | CNc1ccc(-c2cn3cc(Br)ccc3n2)cc1Br [Ligand L18, 2-bromo-4-(6-bromo-H-imidazo[1,2-a]pyridin-2-yl)-N-methylbenzenamine]
658 ± 47 nM | Cc1cc(-c2cn3cc(Br)ccc3n2)ccc1N [Ligand L20, 4-(6-bromo-H-imidazo[1,2-a]pyridin-2-yl)-2-methylbenzenamine]
1840 ± 497 nM | CNc1ccc(-c2cn3cc(SCC(N)=O)ccc3n2)cc1 [Ligand T1, 2-(2-(4(methylamino)pheny)-H-imidazo[1,2-a]pyridin-6-ylthio)acetamide]
391 ± 76 nM | CN(C)c1ccc(-c2cn3cc(SCC(N)=O)ccc3n2)cc1 [Ligand T2, 2-(2-(4-(dimethylamino)phenyl)-H-imidazo[1,2-a]pyridin-6-ylthio)acetamide]
645 ± 75 nM | CNc1ccc(-c2cn3cc(SCCO)ccc3n2)cc1 [Ligand T3, 2-(2-(4-(methylamino)phenyl)-H-imidazo[1,2-a]pyridin-6-ylthio)ethanol]
88 ± 6 nM | CN(C)c1ccc(-c2cn3cc(SCCO)ccc3n2)cc1 [Ligand T4, 2-(2-(4-(dimethylamino)phenyl)-H-imidazo[1,2-a]pyridin-6-ylthio)ethanol]
8.3 ± 1.8 nM | COc1ccc(CSc2ccc3nc(-c4ccc(N(C)C)cc4)cn3c2)cc1 [Ligand T5, 4-(6-(4-methoxybenzylthio)-H-imidazo[1,2-a]pyridin-2-yl)-N,N-dimethylbenzenamine]
7.9 ± 0.6 nM | CSc1ccc2nc(-c3ccc(N(C)C)cc3)cn2c1 [Ligand T6, N,N-dimethyl-4-(6-(methylthio)-H-imidazo[1,2-a]pyridin-2-yl)benzenamine]
8.3 ± 0.5 nM | CCSc1ccc2nc(-c3ccc(N(C)C)cc3)cn2c1 [Ligand T7, 4-(6-(ethylthio)-H-imidazo[1,2-a]pyridin-2-yl)-N,N-dimethylbenzenamine]

SMILES | Ki
CN(C)c1ccc(-c2cn3cc(Br)ccc3n2)cc1 [Ligand L4] | 5.9 ± 0.4 nM

Same assay, conditions: [3H]6-OH-BTA-1 as reference radioligand; isolated human AD amyloid plaques; Table 5

Ki | SMILES
88 ± 22 nM | CN(C)c1ccc(-c2cn3cc(Cl)ncc3n2)cc1 [Ligand L21, 4-(6-chloroimidazo[1,2-a]pyrazin-2-yl)-N,N-dimethylbenzenamine]
147 ± 20 nM | CN(C)c1ccc(-c2cn3cc(Cl)cnc3n2)cc1 [Ligand L22, 4-(6-chloroimidazo[1,2-a]pyrimidin-2-yl)-N,N-dimethylbenzenamine]
5.7 ± 0.7 nM | CN(C)c1ccc(-c2nc3ccc(SCCO)cc3s2)cc1 [Ligand P1]

Same assay, conditions: discussion of the Table 4 Ki values

binding affinity (in words) | SMILES
abolishes all binding affinity | CN(C)c1ccc(-c2cn3cc(O)ccc3n2)cc1 [Ligand L12, 2-(4-(dimethylamino)phenyl)-H-imidazo[1,2-a]pyridin-6-ol]
completely removes the binding affinity | CN(C)c1ccc(-c2cc3c(C#N)cc(Br)cn3c2)cc1 [Ligand L14, 6-bromo-2-(4-(dimethylamino)phenyl)indolizine-8-carbonitrile]

Same assay, conditions: displacement of [3H]6-OH-BTA-1 from isolated amyloid plaques

SMILES | displacement of reference radioligand
CNc1ccc(-c2nc3ccc(O)cc3s2)cc1 [PIB, 6-hydroxy-2-(4′-methylaminophenyl)benzothiazole, reference compound] | > 95%

Molecular target: amyloid (Homo sapiens, UniProt P05067)
Sequence (P05067 672-713 limits assumed): as the sequence (P05067 672-713 limits assumed) above
Sequence (P05067 672-711 limits assumed): as the sequence (P05067 672-711 limits assumed) above
Assay: not given
Details: PET, patients with AD vs healthy people; cited from earlier work

SMILES | binding in the brains of patients with AD compared with healthy people
CNc1ccc(-c2nc3ccc(O)cc3s2)cc1 [carbon-11-labelled-PIB, 6-hydroxy-2-(4′-methylaminophenyl)benzothiazole] | more binding in the brains of patients with AD than in those of healthy people
CC(=C(C#N)C#N)c1ccc2cc(N(C)CC[18F])ccc2c1 [fluorine-18-labelled-FDDNP, 2-(1-{6-[(2-[^18F]fluoroethyl)(methyl)amino]-2-naphthyl}ethylidene)malononitrile] | more binding in the brains of patients with AD than in those of healthy people

Tested on: not given
Assay: not given
Details: not given

melting point | SMILES
234 to 236 °C | CN(C)c1ccc(-c2cn3cc(Cl)ccc3n2)cc1 [Ligand L5]
269 to 271 °C | CN(C)c1ccc(-c2cn3cc(C#N)ccc3n2)cc1 [Ligand L8, 2-(4-(dimethylamino)phenyl)-H-imidazo[1,2-a]pyridine-6-carbonitrile]
197 to 198 °C | CC(=O)N(C)c1ccc(-c2cc3ccc(Br)cn3c2)cc1C [Ligand L16, N-(4-(6-bromoindolizin-2-yl)-2-methylphenyl)-N-methylacetamide]
168 to 171 °C | CCSc1ccc2nc(-c3ccc(N(C)C)cc3)cn2c1 [Ligand T7, 4-(6-(ethylthio)-H-imidazo[1,2-a]pyridin-2-yl)-N,N-dimethylbenzenamine]
